Tested on: P. falciparum 3D7 parasites
Assay: Metabolomic profiling of compound-treated parasites (LC/MS);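 for Metabolite data: 3-Phosphoglycerate: Log2 fold change in abundance versus untreated parasite controls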;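 for Metabolite data: Myo-Inositol: Log2 fold change in abundance versus untreated parasite controls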;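 for Metabolite data: N-Carbamoyl-L-Aspartate: Log2 fold change in abundance versus untreated parasite controls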;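 for Metabolite data: Nicotinate: Log2 fold change in abundance versus untreated parasite controls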
Type: cell-based
Parameters: Metabolite data: dTMP / Metabolite data: GMP / Metabolite data: S-Adenosyl-L-Homocysteine / Metabolite data: 1_3-Bisphosphoglyceric acid: scale not given here
How it was run: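 Magnetically purified trophozoites (1×10^8 parasites/mL) recovered 1 h in RPMI 1640, incubated a further 2.5 h, quenched in 90% methanol with labeled aspartate. Extracts analysed by reverse-phase C18 LC with negative-mode Orbitrap MS; peak areas normalized to internal standards, blank-subtracted and averaged by condition.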

Compound: O=C1C(O)=C([C@H]2CC[C@H](c3ccc(Cl)cc3)CC2)C(=O)c2ccccc21 [Atovaquone, reference compound]
- Metabolite data: 1_3-Bisphosphoglyceric acid: 0
- Metabolite data: 2_3-Diphosphoglyceric acid: -0.24
- Metabolite data: 3-Phosphoglycerate: 0
- Metabolite data: 4-Aminobutyrate: 0.16
- Metabolite data: 4-Phosphopantothenate: -0.34
- Metabolite data: 4-phosphopantetheine: 0
- Metabolite data: 5-aminopentanoic acid: 0
- Metabolite data: 5-phosphoribosyl-1-pyrophosphate: 0
- Metabolite data: 6-Phospho-D-Gluconate: 0.06
- Metabolite data: ADP-D-Glucose: 0.04
- Metabolite data: Acetyl-CoA: -0.68
- Metabolite data: Acetyllysine: -0.01
- Metabolite data: Aconitate: 0.31
- Metabolite data: CDP: -0.84
- Metabolite data: CDP-Ethanolamine: -0.15
- Metabolite data: CDP-choline: 0
- Metabolite data: CMP: -0.8
- Metabolite data: CTP: -0.85
- Metabolite data: Citrate/Isocitrate: -0.17
- Metabolite data: Cyclic-AMP: 0.13
- Metabolite data: Dihydroorotate: 4.84
- Metabolite data: FAD: 0.09
- Metabolite data: FMN: -1.11
- Metabolite data: Fructose-1,6-Bisphosphate: 0.15
- Metabolite data: Fumarate: 0.18
- Metabolite data: GDP: -0.12
- Metabolite data: GMP: 0.4
- Metabolite data: GTP: 0.09
- Metabolite data: Glucose-1/6-Phosphate: -0.03
- Metabolite data: Glutathione Disulfide: 0.11
- Metabolite data: Hexose: 0
- Metabolite data: Hydroxyisocaproic acid: 0
- Metabolite data: Indole: 0.06
- Metabolite data: Ketoleucine: 0
- Metabolite data: L-arginino-succinate: 0
- Metabolite data: Lactate: 0.09
- Metabolite data: Malate: 0.05
- Metabolite data: Myo-Inositol: -0.06
- Metabolite data: N-Acetyl-Glutamate: 0.13
- Metabolite data: N-Acetyl-L-Alanine: 0.22
- Metabolite data: N-Acetyl-L-Ornithine: -0.16
- Metabolite data: N-Carbamoyl-L-Aspartate: 4.58
- Metabolite data: NAD+: 0.08
- Metabolite data: NADH: 1.7
- Metabolite data: NADP+: -0.1
- Metabolite data: NADPH: 0.32
- Metabolite data: Nicotinate: -0.09
- Metabolite data: Octulose 8/1-Phosphate: -0.01
- Metabolite data: Orotate: 0.81
- Metabolite data: PD: 0
- Metabolite data: PE: 0
- Metabolite data: PEEK: 0
- Metabolite data: Phenol Red: 0
- Metabolite data: Pyroglutamic acid: 0.06
- Metabolite data: S-Adenosyl-L-Homocysteine: 0.32
- Metabolite data: S-methyl-5'-thioadenosine: -0.26
- Metabolite data: SD: 0
- Metabolite data: Sedoheptulose Bisphosphate: 0.01
- Metabolite data: UDP: -1.17
- Metabolite data: UDP-D-Glucose: -0.06
- Metabolite data: UDP-D-Glucuronate: -0.13
- Metabolite data: UDP-N-Acetyl-Glucosamine: -0.25
- Metabolite data: UMP: -0.68
- Metabolite data: UTP: -1.12
- Metabolite data: a-ketoglutarate: -0.04
- Metabolite data: acetyl-aspartate: 0
- Metabolite data: arginine: 0
- Metabolite data: asparagine: 0
- Metabolite data: aspartate: 0
- Metabolite data: biotin: 0
- Metabolite data: chlorpropamide: 0
- Metabolite data: coenzyme A: 0
- Metabolite data: dAMP: -0.09
- Metabolite data: dATP: 0.28
- Metabolite data: dCDP: -0.01
- Metabolite data: dCMP: -0.39
- Metabolite data: dCTP: -0.38
- Metabolite data: dGDP/ADP: 0
- Metabolite data: dGMP/AMP: -0.1
- Metabolite data: dGTP/ATP: 0
- Metabolite data: dTDP: -0.95
- Metabolite data: dTMP: -0.81
- Metabolite data: dTTP: -0.98
- Metabolite data: folate: 0
- Metabolite data: glucono-lactone: 0
- Metabolite data: glutamate: 0
- Metabolite data: glutamine: 0
- Metabolite data: glutathione: 0
- Metabolite data: histidine: 0
- Metabolite data: hydroxyproline/Aminolevulinate: 0
- Metabolite data: isoleucine: 0
- Metabolite data: leucine: 0
- Metabolite data: maleic acid: 0
- Metabolite data: methionine: 0
- Metabolite data: nicotinamide mononucleotide: 0
- Metabolite data: orotidine-5'-phosphate: 0

From PMC8878317, “Chemogenomics identifies acetyl-coenzyme A synthetase as a target for malaria treatment and prevention” (Cell Chemical Biology, 2022)
